Test results: patent publication US12077503B2, “Substituted cyclic amides and their use as herbicides” (FMC CORPORATION, priority 2015, dated 2024)

Legend:
Format in all cases: in vivo
[1] = system: barnyardgrass (Echinochloa crus-galli); experiment: Test G Pre-Emergence Protocol; conditions: Echinochloa crus-galli, pre-emergence, 312 h, evaluated after 13 days; for pest or weed control at 15.625 g/ha: 15.625 g ai/ha, read-out: Barnyard grass damage rating (100=total damage to plant; 0=no damage to plant); for pest or weed control at 62.5 g/ha: 62.5 g ai/ha, 100=total damage to plant, 0=no damage to plant, read-out: plant damage rating, Barnyardgrass; for pest or weed control at 250 g/ha: 250 g ai/ha, read-out: Barnyardgrass damage rating (100=total damage to plant; 0=no damage to plant)
Method in brief: (§1)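 Under a 24/16° C day/night regime with 14 h light and 65% humidity, sown pots were sprayed after one day with compound (15.625, 62.5 or 250 g/ha; 50:50 acetone/water, 0.5% Tween 20). Damage was assessed visually 13 days later, 0 to 100.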

[2] = system: ivy-leaved morning glory (Ipomoea hederacea); experiment: Test G Pre-Emergence Protocol; conditions: Ipomoea, pre-emergence, 312 h, evaluated after 13 days; for pest or weed control at 15.625 g/ha: 15.625 g ai/ha, read-out: Morning-glory, Ivy-leaved damage rating (100=total damage to plant; 0=no damage to plant); for pest or weed control at 62.5 g/ha: 62.5 g ai/ha, 100=total damage to plant, 0=no damage to plant, read-out: plant damage rating, Morningglory, Ivy-leaved; for pest or weed control at 250 g/ha: 250 g ai/ha, read-out: Morningglory, Ivy-leaved damage rating (100=total damage to plant; 0=no damage to plant)
Method in brief: as §1

[3] = system: velvetleaf (Abutilon theophrasti); experiment: Test G Pre-Emergence Protocol; conditions: Abutilon theophrasti, pre-emergence, 312 h, evaluated after 13 days; for pest or weed control at 15.625 g/ha: 15.625 g ai/ha; for pest or weed control at 15.625 g/ha / pest or weed control at 250 g/ha: read-out: Velvetleaf damage rating (100=total damage to plant; 0=no damage to plant); for pest or weed control at 62.5 g/ha: 62.5 g ai/ha, 100=total damage to plant, 0=no damage to plant, read-out: plant damage rating, Velvetleaf; for pest or weed control at 250 g/ha: 250 g ai/ha
Method in brief: as §1

corn (Zea mays) [4] = experiment: Test G Pre-Emergence Protocol; conditions: Zea mays, pre-emergence, 312 h, evaluated after 13 days; for plant injury at 15.625 g/ha: 15.625 g ai/ha; for plant injury at 15.625 g/ha / plant injury at 250 g/ha: read-out: Corn damage rating (100=total damage to plant; 0=no damage to plant); for plant injury at 62.5 g/ha: 62.5 g ai/ha, 100=total damage to plant, 0=no damage to plant, read-out: plant damage rating, Corn; for plant injury at 250 g/ha: 250 g ai/ha
Method in brief: as §1

[5] = system: giant foxtail (Setaria faberi); experiment: Test G Pre-Emergence Protocol; conditions: Setaria faberi, pre-emergence, 312 h, evaluated after 13 days; for pest or weed control at 15.625 g/ha: 15.625 g ai/ha; for pest or weed control at 15.625 g/ha / pest or weed control at 250 g/ha: read-out: Foxtail, Giant damage rating (100=total damage to plant; 0=no damage to plant); for pest or weed control at 62.5 g/ha: 62.5 g ai/ha, 100=total damage to plant, 0=no damage to plant, read-out: plant damage rating, Foxtail, Giant; for pest or weed control at 250 g/ha: 250 g ai/ha
Method in brief: as §1

[6] = system: redroot pigweed (Amaranthus retroflexus); experiment: Test G Pre-Emergence Protocol; conditions: Amaranthus retroflexus, pre-emergence, 312 h, evaluated after 13 days; for pest or weed control at 15.625 g/ha: 15.625 g ai/ha; for pest or weed control at 15.625 g/ha / pest or weed control at 250 g/ha: read-out: Pigweed, Redroot damage rating (100=total damage to plant; 0=no damage to plant); for pest or weed control at 62.5 g/ha: 62.5 g ai/ha, 100=total damage to plant, 0=no damage to plant, read-out: plant damage rating, Pigweed, Redroot; for pest or weed control at 250 g/ha: 250 g ai/ha
Method in brief: as §1

[7] = system: barnyardgrass (Echinochloa crus-galli); experiment: Test G Post-Emergence Protocol; conditions: Echinochloa crus-galli, post-emergence, 312 h; for pest or weed control at 15.625 g/ha: 15.625 g ai/ha, evaluated after 13 days (100=total damage to plant; 0=no damage to plant), read-out: Barnyardgrass damage rating; for pest or weed control at 62.5 g/ha: 62.5 g ai/ha, read-out: Barnyardgrass damage rating (100=total damage to plant; 0=no damage to plant); for pest or weed control at 62.5 g/ha / pest or weed control at 250 g/ha: evaluated after 13 days; for pest or weed control at 250 g/ha: 250 g ai/ha, read-out: damage to plant, Barnyardgrass (100=total damage to plant; 0=no damage to plant)
Method in brief: (§2)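 Sow in soil; grow 8 d (24/16 °C, 14 h light, 65% humidity); spray 15.625/62.5/250 g/ha in acetone:water 50:50 + 0.5% Tween 20; grow on, water twice daily; score damage 0–100 at 13 d.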

[8] = system: ivy-leaved morning glory (Ipomoea hederacea); experiment: Test G Post-Emergence Protocol; conditions: Ipomoea, post-emergence, 312 h; for pest or weed control at 15.625 g/ha: 15.625 g ai/ha, evaluated after 13 days (100=total damage to plant; 0=no damage to plant), read-out: Morningglory, Ivy-leaved damage rating; for pest or weed control at 62.5 g/ha: 62.5 g ai/ha, read-out: Morningglory, Ivy-leaved damage rating (100=total damage to plant; 0=no damage to plant); for pest or weed control at 62.5 g/ha / pest or weed control at 250 g/ha: evaluated after 13 days; for pest or weed control at 250 g/ha: 250 g ai/ha, read-out: damage to plant, Morningglory, Ivy-leaved (100=total damage to plant; 0=no damage to plant)
Method in brief: as §2

[9] = system: velvetleaf (Abutilon theophrasti); experiment: Test G Post-Emergence Protocol; conditions: Abutilon theophrasti, post-emergence, 312 h; for pest or weed control at 15.625 g/ha: 15.625 g ai/ha, evaluated after 13 days (100=total damage to plant; 0=no damage to plant), read-out: Velvetleaf damage rating; for pest or weed control at 62.5 g/ha: 62.5 g ai/ha, read-out: Velvetleaf damage rating (100=total damage to plant; 0=no damage to plant); for pest or weed control at 62.5 g/ha / pest or weed control at 250 g/ha: evaluated after 13 days; for pest or weed control at 250 g/ha: 250 g ai/ha, read-out: damage to plant, Velvetleaf (100=total damage to plant; 0=no damage to plant)
Method in brief: as §2

corn (Zea mays) [10] = experiment: Test G Post-Emergence Protocol; conditions: Zea mays, post-emergence, 312 h; for plant injury at 15.625 g/ha: 15.625 g ai/ha, evaluated after 13 days (100=total damage to plant; 0=no damage to plant), read-out: Corn damage rating; for plant injury at 62.5 g/ha: 62.5 g ai/ha, read-out: Corn damage rating (100=total damage to plant; 0=no damage to plant); for plant injury at 62.5 g/ha / plant injury at 250 g/ha: evaluated after 13 days; for plant injury at 250 g/ha: 250 g ai/ha, read-out: damage to plant, Corn (100=total damage to plant; 0=no damage to plant)
Method in brief: as §2

[11] = system: giant foxtail (Setaria faberi); experiment: Test G Post-Emergence Protocol; conditions: Setaria faberi, post-emergence, 312 h; for pest or weed control at 15.625 g/ha: 15.625 g ai/ha, evaluated after 13 days (100=total damage to plant; 0=no damage to plant), read-out: Foxtail, Giant damage rating; for pest or weed control at 62.5 g/ha: 62.5 g ai/ha, read-out: Foxtail, Giant damage rating (100=total damage to plant; 0=no damage to plant); for pest or weed control at 62.5 g/ha / pest or weed control at 250 g/ha: evaluated after 13 days; for pest or weed control at 250 g/ha: 250 g ai/ha, read-out: damage to plant, Foxtail, Giant (100=total damage to plant; 0=no damage to plant)
Method in brief: as §2

[12] = system: redroot pigweed (Amaranthus retroflexus); experiment: Test G Post-Emergence Protocol; conditions: Amaranthus retroflexus, post-emergence, 312 h; for pest or weed control at 15.625 g/ha: 15.625 g ai/ha, evaluated after 13 days (100=total damage to plant; 0=no damage to plant), read-out: Pigweed, Redroot damage rating; for pest or weed control at 62.5 g/ha: 62.5 g ai/ha, read-out: Pigweed, Redroot damage rating (100=total damage to plant; 0=no damage to plant); for pest or weed control at 62.5 g/ha / pest or weed control at 250 g/ha: evaluated after 13 days; for pest or weed control at 250 g/ha: 250 g ai/ha, read-out: damage to plant, Pigweed, Redroot (100=total damage to plant; 0=no damage to plant)
Method in brief: as §2

| SMILES | pest or weed control at 15.625 g/ha [1] [%] | pest or weed control at 62.5 g/ha [1] [%] | pest or weed control at 250 g/ha [1] [%] | pest or weed control at 15.625 g/ha [2] [%] | pest or weed control at 62.5 g/ha [2] [%] | pest or weed control at 250 g/ha [2] [%] | pest or weed control at 15.625 g/ha [3] [%] | pest or weed control at 62.5 g/ha [3] [%] | pest or weed control at 250 g/ha [3] [%] | plant injury at 15.625 g/ha (corn (Zea mays) [4]) [%] | plant injury at 62.5 g/ha (corn (Zea mays) [4]) [%] | plant injury at 250 g/ha (corn (Zea mays) [4]) [%] | pest or weed control at 15.625 g/ha [5] [%] | pest or weed control at 62.5 g/ha [5] [%] | pest or weed control at 250 g/ha [5] [%] | pest or weed control at 15.625 g/ha [6] [%] | pest or weed control at 62.5 g/ha [6] [%] | pest or weed control at 250 g/ha [6] [%] | pest or weed control at 15.625 g/ha [7] [%] | pest or weed control at 62.5 g/ha [7] [%] | also measured |
| --- | --- | --- | --- | --- | --- | --- | --- | --- | --- | --- | --- | --- | --- | --- | --- | --- | --- | --- | --- | --- | --- |
| CN1C[C@@H](c2ccc(C(F)(F)F)cc2)[C@H](C(=O)Nc2ccc(F)cc2C(F)(F)F)C1=O (racemic) [Compound 1616] | 0 | 0 | 60 | 0 | 0 | 20 | 0 | 0 | 50 | 0 | 0 | 0 | 0 | 80 | 90 | 0 | 20 | 60 | 10 | 10 | pest or weed control at 250 g/ha [7]: 60%; pest or weed control at 15.625 g/ha [8]: 0%; pest or weed control at 62.5 g/ha [8]: 10%; pest or weed control at 250 g/ha [8]: 20%; pest or weed control at 15.625 g/ha [9]: 10%; pest or weed control at 62.5 g/ha [9]: 0%; pest or weed control at 250 g/ha [9]: 30%; plant injury at 15.625 g/ha (corn (Zea mays) [10]): 0%; plant injury at 62.5 g/ha (corn (Zea mays) [10]): 0%; plant injury at 250 g/ha (corn (Zea mays) [10]): 0%; pest or weed control at 15.625 g/ha [11]: 40%; pest or weed control at 62.5 g/ha [11]: 20%; pest or weed control at 250 g/ha [11]: 80%; pest or weed control at 15.625 g/ha [12]: 20%; pest or weed control at 62.5 g/ha [12]: 50%; pest or weed control at 250 g/ha [12]: 60% |
| CN1C[C@@H](c2ccc(C(F)(F)F)cc2)[C@H](C(=O)Nc2cncc(Cl)n2)C1=O (racemic) [Compound 1574] | 0 | 0 | 60 | 0 | 0 | 0 | 0 | 0 | 0 | 0 | 0 | 0 | 0 | 0 | 70 | 0 | 0 | 30 | 0 | 0 | pest or weed control at 250 g/ha [7]: 40%; pest or weed control at 15.625 g/ha [8]: 0%; pest or weed control at 62.5 g/ha [8]: 0%; pest or weed control at 250 g/ha [8]: 40%; pest or weed control at 15.625 g/ha [9]: 0%; pest or weed control at 62.5 g/ha [9]: 0%; pest or weed control at 250 g/ha [9]: 0%; plant injury at 15.625 g/ha (corn (Zea mays) [10]): 0%; plant injury at 62.5 g/ha (corn (Zea mays) [10]): 0%; plant injury at 250 g/ha (corn (Zea mays) [10]): 0%; pest or weed control at 15.625 g/ha [11]: 0%; pest or weed control at 62.5 g/ha [11]: 0%; pest or weed control at 250 g/ha [11]: 60%; pest or weed control at 15.625 g/ha [12]: 0%; pest or weed control at 62.5 g/ha [12]: 0%; pest or weed control at 250 g/ha [12]: 0% |
